Data as given in ChEMBL document CHEMBL1156829 (Proc Natl Acad Sci U S A, 2008).

What was measured:
Plasmodium falciparum [1] = experiment: NOVARTIS: Inhibition of Plasmodium falciparum W2 (drug-resistant) proliferation in erythrocyte-based infection assay; assay type: functional, organism-based; conditions: Plasmodium falciparum, W2; read-out: EC50
Plasmodium falciparum [2] = experiment: NOVARTIS: Inhibition of Plasmodium falciparum 3D7 (drug-susceptible) proliferation in erythrocyte-based infection assay; assay type: functional, organism-based; conditions: Plasmodium falciparum, 3D7
[3] = NOVARTIS: Cytotoxicity against human hepatocellular carcinoma cell line (Huh7); assay type: toxicity, cell-based, Huh-7; conditions: Huh7 cells (hepatocellular carcinoma cell line)

| Structure (SMILES) | EC50 (Plasmodium falciparum [1]) | EC50 (Plasmodium falciparum [2]) | CC50 [3] |
| --- | --- | --- | --- |
| CCCCOc1c2ccccc2nc2ccccc12 | > 0.592 µM | > 1.25 µM | > 10 µM |
| CCC(Sc1nc(C)cc(-c2ccccc2)n1)C(=O)Nc1cccc2ccccc12 (stereo not given) | 0.496 µM | > 1.25 µM | > 10 µM |
| CCOC(=O)c1[nH]c(C)c(Cc2ccc(OCC)cc2)c1C | 0.347 µM | 0.279 µM | > 100 µM |
| CCCCCc1ccc(OCCCC[n+]2cccc(C)c2)c(CCCCC)c1 | 0.336 µM | 0.713 µM | 20.5 µM |
| O=C(CNCCc1ccccc1)NC(c1ccccc1)c1ccccc1 | 0.623 µM | 5.96 µM | 45.4 µM |
| CCc1cc(=O)n(C)c(SC(C)C(=O)Nc2ccc(F)cc2)n1 (stereo not given) | 0.729 µM | 0.756 µM | > 10 µM |
| Oc1ccc(-c2ccnc3cc(Cl)ccc23)cc1CNC1CN2CCC1CC2 (stereo not given) | < 0.0241 µM | 0.986 µM | > 10 µM |
| Cn1c(=O)c2c(nc3n(CCCO)c(C45CC6CC(CC(C6)C4)C5)cn23)n(C)c1=O | 1.54 µM | > 1.25 µM | > 10 µM |
| CCCN(CC(=O)Nc1cc(C(C)(C)C)nn1-c1cccc(C)c1C)C(=O)C(C)(C)C | > 0.763 µM | > 1.25 µM | > 10 µM |
| O=C(NCCN(CCNc1ccnc2cc(Cl)ccc12)CCNc1ccnc2cc(Cl)ccc12)C1CCC1 | 0.255 µM | 0.207 µM | > 10 µM |
| COC(=O)c1c(-c2c(Cl)cccc2Cl)noc1/C=C/Nc1ccc(Cl)cc1 | < 0.00295 µM | 0.0135 µM | > 10 µM |
| N=c1c2c(n(Cc3ccccc3Cl)c3c1CCC3)CCCC2 | 0.174 µM | 0.222 µM | > 100 µM |
| CCOC(=O)C1=C(C)NC2=C(C(=O)CC(c3ccc(OC)c(OC)c3)C2)C1c1cccc(C)c1 (stereo not given) | 0.0572 µM | 0.236 µM | > 100 µM |
| NC(=O)c1ccc2c(c1)N=C(/C=C/c1ccccc1)N(C1CC1)C2 | 5.6 µM | 0.0747 µM | 22.9 µM |
| CCC1=[N+](C)c2cccc3cccc(c23)N1C | 0.739 µM | 0.958 µM | > 100 µM |
| CCn1c(SCc2ccc(Cl)cc2Cl)nc2sc3c(c2c1=O)CCN(C)C3 | 0.9 µM | 0.942 µM | > 100 µM |
| O=C1C(Nc2ccc(O)cc2)=CC(=NS(=O)(=O)c2cccs2)c2ccccc21 | 0.297 µM | 0.59 µM | 2.43 µM |
| CCN(CC)CCCC(C)Nc1c2ccc(Cl)cc2nc2ccc(OC)cc12 (stereo not given) [QUINACRINE] | 0.0142 µM | 0.00813 µM | 19.6 µM |
| CC(=NNC(N)=S)C(C)=NNC(N)=S | 0.462 µM | 0.572 µM | > 100 µM |
| CCCN1CCC(N2C[C@@H](NCc3cc(C)ccc3C)C[C@H]2C(=O)NCCc2ccc3c(c2)OCO3)CC1 | 0.661 µM | 0.478 µM | 4.2 µM |
| O=C(COc1ccc(-c2ncccn2)cc1CN1CCCCCC1)NCc1ccccc1C(F)(F)F | > 1.15 µM | > 1.25 µM | > 10 µM |
| Cc1ccc(Cn2c(=N)n(CC(O)c3ccc(Cl)c(Cl)c3)c3ccccc32)cc1 (stereo not given) | 0.0613 µM | 0.107 µM | 6 µM |
| COC(=O)C1=C(C)NC2=C(C(=O)CC(c3ccc(Cl)cc3)C2)C1c1ccc(F)cc1 (stereo not given) | 0.0982 µM | 0.188 µM | > 100 µM |
| CC(=O)N(C1=C(N2CCCC2)C(=O)c2ccccc2C1=O)c1cccc(F)c1 | 0.323 µM | 0.406 µM | 29 µM |

| Structure (SMILES) | EC50 (Plasmodium falciparum [1]) | EC50 (Plasmodium falciparum [2]) | CC50 [3] |
| --- | --- | --- | --- |
| COc1cc2ncnc(NC3CCN(Cc4ccccc4)CC3)c2cc1OC | 0.485 µM | 0.4 µM | > 100 µM |
| CCCCCCCCn1c(C)[n+](CC)c2cc(C(=O)OCC)ccc21 | 0.504 µM | 0.686 µM | > 100 µM |
| COc1ccc(NC(=O)c2cccc([N+](=O)[O-])c2C)cc1 | 4.77 µM | > 3.55 µM | > 100 µM |
| CCOC(=O)c1c(C)n(-c2ccccc2)c2ccc(OC(=O)c3ccco3)cc12 | 1.14 µM | 0.607 µM | > 100 µM |
| CN1CCCC1CCNCc1cc(-c2ccnc3cc(Cl)ccc23)ccc1O (stereo not given) | 0.153 µM | 0.0314 µM | 15.2 µM |
| COc1cccc(C(=O)C[n+]2cc(-c3ccc(Cl)cc3)n3c2CCC3)c1 | 0.975 µM | 1.74 µM | > 100 µM |
| CCOC(=O)c1c(C)oc2c1c1c(c3ccccc32)OCN(C2CCCC2)C1 | 2.96 µM | 11.1 µM | > 100 µM |
| O=C1C(NC2CCCC2)=C(N2CCCCC2)C(=O)c2ccccc21 | 0.0342 µM | 0.0224 µM | 10.1 µM |
| Nc1ccc(-c2nc(-c3ccc(N)cc3)c3ccccc3n2)cc1 | 0.759 µM | > 1.25 µM | > 10 µM |
| Cc1ccc(C=NNc2ncnc3nc[nH]c23)cc1 | 0.804 µM | 0.697 µM | > 100 µM |
| CCCCCNC(=O)C1CSC(c2ccoc2)N1C(=O)c1ccccc1Cl (stereo not given) | 1.06 µM | 2.32 µM | > 100 µM |
| O=C(Cc1ccccc1)NC(c1ccccc1)c1ccc2cccnc2c1O (stereo not given) | 0.382 µM | 0.423 µM | > 100 µM |
| O=C(Nc1ccccc1)/C(=C\c1ccncc1)NC(=O)c1ccccc1 | > 0.955 µM | > 1.25 µM | > 10 µM |
| O=C(CC1N=C2c3ccccc3N=C(SCc3cccc(F)c3)N2C1=O)NCc1cccs1 (stereo not given) | 0.96 µM | 1.19 µM | > 100 µM |
| COc1ccc2cc3[n+](cc2c1OC)CCc1cc2c(cc1-3)OCO2 [BERBERINE CHLORIDE] | 0.442 µM | 0.218 µM | > 100 µM |
| COc1ccc(C2C(C(=O)c3ccccc3)=C(O)C(=O)N2c2cccc(Cl)c2)c(OC)c1 (stereo not given) | 2.59 µM | > 12.5 µM | > 100 µM |
| O=C(O)CCNc1ccccc1[N+](=O)[O-] | > 4.31 µM | > 8.54 µM | > 100 µM |
| CCN(CC)c1ccc(C2N(Cc3ccccc3)CCN2Cc2ccccc2)c(O)c1 | 2.82 µM | 2.36 µM | 23.6 µM |
| COc1ccc(C2=Nc3cc(C(=O)NCCN4CCOCC4)ccc3CN2C(C)C)cc1 | 1.53 µM | 5.27 µM | > 100 µM |
| COc1ccccc1NC(=O)N(Cc1ccccc1)C(C)c1nc2ccccc2c(=O)n1-c1cc(C)ccc1OC (stereo not given) | < 0.0156 µM | 0.344 µM | > 10 µM |
| CN(C)CCNC(=O)COc1ccc(-c2nc3ccccc3s2)cc1CN(C)C | 0.557 µM | 0.622 µM | > 10 µM |
| CCCCCOC(=O)C1=C(C)NC2=C(C(=O)CCC2)C1c1ccc(OC)c(Br)c1 (stereo not given) | 0.65 µM | 0.615 µM | > 100 µM |
| Fc1ccc(C2(CCCSc3nnc4c(n3)[nH]c3ccccc34)OCCO2)cc1 | 0.141 µM | 0.4 µM | > 100 µM |
| CCOC(=O)c1c(N=Cc2cccc(OC)c2O)sc2c1CCN(C)C2 | 0.744 µM | > 12.5 µM | > 100 µM |

| Structure (SMILES) | EC50 (Plasmodium falciparum [1]) | EC50 (Plasmodium falciparum [2]) | CC50 [3] |
| --- | --- | --- | --- |
| COc1ccc(C2CC(=O)C3=C(C2)NC(C)=C(C(=O)OC(C)C)C3c2ccc(Cl)cc2Cl)cc1OC (stereo not given) | 0.00391 µM | 0.0063 µM | > 100 µM |
| CN(C)c1ccc(/C=C/C(=O)NC(=O)c2ccccc2O)cc1 | 0.0752 µM | 0.0844 µM | > 10 µM |
| CSc1nc(N)nc(SC2C=CCCC2)c1C#N (stereo not given) | > 12.5 µM | 7.06 µM | > 100 µM |
| CCCCCOc1ccc(/C=C2/N=C(c3ccccc3)OC2=O)cc1 | > 0.944 µM | > 0.116 µM | > 10 µM |
| CCc1cccc(NS(=O)(=O)c2ccc3[nH]c(=O)c(=O)[nH]c3c2)c1 | > 1.45 µM | > 1.04 µM | > 10 µM |
| COc1ccc(C=NNc2nc(Nc3ccc([N+](=O)[O-])cc3)nc(N3CCN(C)CC3)n2)cc1OC | 0.444 µM | 1.82 µM | 15.2 µM |
| COc1cccc(-n2sc3c(c2=S)-c2cc(OC)ccc2NC3(C)C)c1 | 1.48 µM | > 0.991 µM | > 10 µM |
| O=[N+]([O-])c1cc(C(F)(F)F)cc([N+](=O)[O-])c1Sc1cccc2cccnc12 | 1.12 µM | 4.34 µM | 4.34 µM |
| O=C(NN=CC(Br)=Cc1ccccc1)c1ccc(F)cc1 | 0.618 µM | 0.981 µM | > 10 µM |
| COc1ccc(CCNc2nc(NCCCN3CCCCC3C)ncc2C(=O)NCC(C)C)cc1OC (stereo not given) | > 0.706 µM | 1.16 µM | > 10 µM |
| OC1=C2C(=Nc3ccccc3SC2c2ccco2)c2ccccc21 (stereo not given) | 0.35 µM | 0.251 µM | 55.3 µM |
| Cc1cc(C)c(CSc2ncnc3[nH]cnc23)c(C)c1 | > 0.278 µM | > 1.52 µM | > 10 µM |
| O=C(NC1CCN(Cc2ccccc2)CC1)c1cc([N+](=O)[O-])cc([N+](=O)[O-])c1 | 1.22 µM | 0.476 µM | > 10 µM |
| O=C1N=C(N2CCOCC2)S/C1=C/c1cccc2ccccc12 | 0.329 µM | > 1.25 µM | > 10 µM |
| O=C(NC1CCN(Cc2ccccc2)CC1)[C@@H](c1ccccc1)N1Cc2ccccc2C1=O | 4.21 µM | > 12.5 µM | > 100 µM |
| Oc1c(CN2CCCCC2)ccc2ccccc12 | 0.727 µM | 5.63 µM | > 100 µM |
| CC(=O)Nc1nc(-c2ccc(F)cc2)cs1 | 3.52 µM | > 12.5 µM | > 100 µM |
| Fc1ccc(N2CCN(c3ncnc4c3cnn4-c3ccccc3)CC2)cc1 | 3.78 µM | > 12.5 µM | > 100 µM |
| CCCC(=O)N1CCN(C(=O)c2nc(-c3ccccc3)nc(C(C)C)c2C(=O)OC)CC1C (stereo not given) | 0.475 µM | 0.88 µM | > 8.44 µM |
| CCc1cccc2c(C#N)cn(CC(=O)Nc3ccc(OC)cc3)c12 | 0.127 µM | 0.225 µM | > 100 µM |
| O=C(O)c1cccc(N2N=C(c3ccccc3)CC2=O)c1 | > 9.63 µM | > 12.5 µM | > 100 µM |
| COc1ccc(N2C(=O)/C(=C3/C(=O)Nc4ccc(F)cc43)SC2=S)c(OC)c1 | 0.947 µM | > 0.926 µM | > 10 µM |
